{"source": "patent US20260049077A1", "about": "“Neurotrophic Receptor Tyrosine Kinase (NTRK) Inhibitors and Methods Using Same” (Baylor College of Medicine, priority 2022, published 2026)", "key": {"192 kinases": {"system": "192 kinases", "assay": "Promega K192 cell-based NanoBRET kinase occupancy assay (panel)", "conditions": "1 μM", "description": "(§1) Similarly, the selectivity of CDD-3031 for NTRK kinases was evaluated in a kinase occupancy assay (Promega K192 cell-based NanoBRET assay) using 192 kinases (Table 4)."}, "NTRK3": {"molecular_target": "NTRK3 (Homo sapiens (Human), UniProt Q16288)", "sequence (Q16288 32-839)": "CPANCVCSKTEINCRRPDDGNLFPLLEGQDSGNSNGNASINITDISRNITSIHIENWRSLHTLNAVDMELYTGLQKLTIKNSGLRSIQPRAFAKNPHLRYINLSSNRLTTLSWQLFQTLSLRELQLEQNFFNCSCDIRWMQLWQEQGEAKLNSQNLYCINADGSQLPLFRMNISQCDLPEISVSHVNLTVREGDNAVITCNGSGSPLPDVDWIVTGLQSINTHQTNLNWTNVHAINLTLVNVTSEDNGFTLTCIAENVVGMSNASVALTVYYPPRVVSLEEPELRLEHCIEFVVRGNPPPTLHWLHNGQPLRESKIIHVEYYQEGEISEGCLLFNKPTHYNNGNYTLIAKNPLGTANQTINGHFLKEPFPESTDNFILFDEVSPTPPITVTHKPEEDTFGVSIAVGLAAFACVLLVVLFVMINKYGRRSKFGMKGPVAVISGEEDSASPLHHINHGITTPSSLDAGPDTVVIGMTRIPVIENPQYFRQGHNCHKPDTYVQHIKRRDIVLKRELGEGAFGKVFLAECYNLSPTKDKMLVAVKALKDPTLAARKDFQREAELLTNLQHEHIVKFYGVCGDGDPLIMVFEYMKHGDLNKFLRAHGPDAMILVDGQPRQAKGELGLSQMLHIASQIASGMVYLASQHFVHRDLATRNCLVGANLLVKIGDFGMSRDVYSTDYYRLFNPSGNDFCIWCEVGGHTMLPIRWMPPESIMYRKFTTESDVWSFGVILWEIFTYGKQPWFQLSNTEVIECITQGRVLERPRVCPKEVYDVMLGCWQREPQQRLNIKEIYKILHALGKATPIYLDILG", "assay": "NTRK3 inhibition (IC50)", "conditions": "read-out: NTRK3 IC50"}, "[1]": {"assay": "Brain uptake in mice 24 hours post-administration", "assay_type": "in vivo, mouse"}, "[2]": {"assay": "Metabolic stability in mouse liver microsomes (MLM)"}, "[3]": {"assay": "Endometriosis mouse model, liver and kidney toxicity (organ weight, ALT, AST)", "assay_type": "in vivo", "design": "ALT (Mean ± SD) / AST (Mean ± SD): unit not given here", "description": "(§2) In one aspect, the present disclosure provides exemplary data relating to the administration of NTRK2 inhibitors in a mouse model of endometriosis (FIG. 14). In certain embodiments, the recipient mouse is administered the NTRK2 inhibitor and/or controls on day 14 after intraperitoneal injection of endometrium of the donor mouse. In certain embodiments, the recipient mouse is sacrificed and quantitatively assessed on day 28."}, "[4]": {"assay": "Pharmacokinetics of CDD-3031 in mice, oral gavage", "assay_type": "in vivo, mouse", "conditions": "oral gavage 50 mg/kg, n = 3, mean ± SD", "description": "CDD-2330 was dissolved in 10% DMSO+0.5% methyl cellulose at 5 mg/mL. CDD-2330 was orally delivered at 50 mg/kg to mice (n=4). Blood samples were collected at 0, 0.25, 0.5, 1, 2, 4, 6, 8, and 24 h. Samples were analyzed by LC-MS, and the concentration of CDD-2330 was quantified with a standard curve (range: 0-10 μM). CDD-3031 was administered by oral gavage at a dose of 50 mg/kg. Blood samples were collected at […], 0.167, 0.25, 0.5, 1, 2, 4, 6, 8, and 24 h."}, "[5]": {"assay": "Metabolic stability in human liver microsomes (HLM)"}, "NTRK2": {"molecular_target": "NTRK2 (Homo sapiens (Human), UniProt Q16620)", "sequence (Q16620 32-822)": "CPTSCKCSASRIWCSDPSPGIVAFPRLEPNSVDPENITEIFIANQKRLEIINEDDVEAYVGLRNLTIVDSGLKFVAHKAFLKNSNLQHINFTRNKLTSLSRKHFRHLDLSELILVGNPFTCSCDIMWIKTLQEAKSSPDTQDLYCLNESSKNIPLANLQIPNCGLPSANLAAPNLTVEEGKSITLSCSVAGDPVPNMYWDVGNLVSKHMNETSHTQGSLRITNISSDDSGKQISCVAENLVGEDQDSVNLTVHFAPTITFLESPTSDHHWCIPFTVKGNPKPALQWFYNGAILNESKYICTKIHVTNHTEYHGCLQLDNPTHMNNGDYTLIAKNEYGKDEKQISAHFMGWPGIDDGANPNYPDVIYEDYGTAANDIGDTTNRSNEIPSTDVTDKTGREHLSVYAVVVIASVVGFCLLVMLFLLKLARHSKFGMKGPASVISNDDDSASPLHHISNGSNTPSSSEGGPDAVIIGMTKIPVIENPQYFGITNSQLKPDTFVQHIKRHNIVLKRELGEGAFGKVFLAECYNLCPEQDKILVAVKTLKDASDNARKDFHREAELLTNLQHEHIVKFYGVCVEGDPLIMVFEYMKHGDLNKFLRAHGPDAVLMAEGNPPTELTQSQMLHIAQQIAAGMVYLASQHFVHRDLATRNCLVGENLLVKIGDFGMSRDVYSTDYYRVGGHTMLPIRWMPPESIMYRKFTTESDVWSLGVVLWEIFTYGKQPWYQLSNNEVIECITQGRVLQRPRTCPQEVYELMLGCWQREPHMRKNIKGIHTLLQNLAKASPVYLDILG", "assay": "NTRK2 inhibition (IC50)", "assay_type": "biochemical"}, "STK36": {"molecular_target": "STK36 (Homo sapiens (Human), UniProt Q9NRP7)", "sequence (Q9NRP7 whole entry)": "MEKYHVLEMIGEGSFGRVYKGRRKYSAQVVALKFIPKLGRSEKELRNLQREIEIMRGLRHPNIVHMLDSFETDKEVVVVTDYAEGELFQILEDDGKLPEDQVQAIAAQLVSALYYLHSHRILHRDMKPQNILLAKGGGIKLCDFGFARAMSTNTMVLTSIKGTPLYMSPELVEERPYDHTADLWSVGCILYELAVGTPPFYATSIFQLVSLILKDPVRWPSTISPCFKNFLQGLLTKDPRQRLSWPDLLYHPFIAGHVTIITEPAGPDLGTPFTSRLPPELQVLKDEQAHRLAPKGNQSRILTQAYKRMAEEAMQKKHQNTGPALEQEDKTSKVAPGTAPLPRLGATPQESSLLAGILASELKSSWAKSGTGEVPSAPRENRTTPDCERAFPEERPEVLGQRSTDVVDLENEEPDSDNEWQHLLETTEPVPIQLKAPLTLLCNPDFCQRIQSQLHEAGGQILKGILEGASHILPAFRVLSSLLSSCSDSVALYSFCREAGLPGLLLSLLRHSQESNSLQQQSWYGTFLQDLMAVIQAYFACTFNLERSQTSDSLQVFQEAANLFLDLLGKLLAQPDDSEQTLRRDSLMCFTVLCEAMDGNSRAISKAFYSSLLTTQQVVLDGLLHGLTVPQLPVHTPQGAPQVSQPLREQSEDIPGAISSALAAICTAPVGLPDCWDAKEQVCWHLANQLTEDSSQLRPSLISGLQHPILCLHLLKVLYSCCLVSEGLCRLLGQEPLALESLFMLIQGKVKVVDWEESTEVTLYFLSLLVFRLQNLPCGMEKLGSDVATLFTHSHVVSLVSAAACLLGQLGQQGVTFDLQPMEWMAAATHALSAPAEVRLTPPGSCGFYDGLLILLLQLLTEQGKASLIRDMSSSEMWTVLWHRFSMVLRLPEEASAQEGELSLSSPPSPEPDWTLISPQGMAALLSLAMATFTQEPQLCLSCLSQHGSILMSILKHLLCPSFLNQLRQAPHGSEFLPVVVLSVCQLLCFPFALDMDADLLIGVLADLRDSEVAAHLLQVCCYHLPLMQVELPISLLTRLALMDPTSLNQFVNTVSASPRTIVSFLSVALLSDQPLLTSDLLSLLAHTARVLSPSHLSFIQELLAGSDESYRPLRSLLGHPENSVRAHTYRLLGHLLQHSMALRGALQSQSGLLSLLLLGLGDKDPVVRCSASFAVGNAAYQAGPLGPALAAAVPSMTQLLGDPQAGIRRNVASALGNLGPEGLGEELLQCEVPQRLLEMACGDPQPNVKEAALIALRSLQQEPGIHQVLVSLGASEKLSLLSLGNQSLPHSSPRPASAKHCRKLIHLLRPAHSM", "assay": "Promega K192 cell-based NanoBRET kinase occupancy assay", "description": "as §1"}, "PKMYT1": {"molecular_target": "PKMYT1 (Homo sapiens (Human), UniProt Q99640)", "sequence (Q99640 whole entry)": "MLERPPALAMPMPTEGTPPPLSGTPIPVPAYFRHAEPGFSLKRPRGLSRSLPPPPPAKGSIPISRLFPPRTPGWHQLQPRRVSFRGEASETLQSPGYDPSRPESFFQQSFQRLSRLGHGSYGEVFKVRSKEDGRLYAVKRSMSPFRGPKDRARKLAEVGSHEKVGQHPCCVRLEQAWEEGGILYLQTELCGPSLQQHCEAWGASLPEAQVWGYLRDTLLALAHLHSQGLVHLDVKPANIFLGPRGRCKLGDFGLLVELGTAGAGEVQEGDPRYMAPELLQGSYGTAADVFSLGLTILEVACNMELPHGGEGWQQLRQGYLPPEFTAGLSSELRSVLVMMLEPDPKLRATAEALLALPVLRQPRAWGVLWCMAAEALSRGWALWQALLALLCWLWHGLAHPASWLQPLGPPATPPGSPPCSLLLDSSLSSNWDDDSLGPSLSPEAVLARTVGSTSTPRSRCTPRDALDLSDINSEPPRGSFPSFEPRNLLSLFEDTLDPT", "assay": "Promega K192 cell-based NanoBRET kinase occupancy assay", "description": "as §1"}, "NTRK1": {"molecular_target": "NTRK1 (Homo sapiens (Human), UniProt P04629)", "sequence (P04629 33-796)": "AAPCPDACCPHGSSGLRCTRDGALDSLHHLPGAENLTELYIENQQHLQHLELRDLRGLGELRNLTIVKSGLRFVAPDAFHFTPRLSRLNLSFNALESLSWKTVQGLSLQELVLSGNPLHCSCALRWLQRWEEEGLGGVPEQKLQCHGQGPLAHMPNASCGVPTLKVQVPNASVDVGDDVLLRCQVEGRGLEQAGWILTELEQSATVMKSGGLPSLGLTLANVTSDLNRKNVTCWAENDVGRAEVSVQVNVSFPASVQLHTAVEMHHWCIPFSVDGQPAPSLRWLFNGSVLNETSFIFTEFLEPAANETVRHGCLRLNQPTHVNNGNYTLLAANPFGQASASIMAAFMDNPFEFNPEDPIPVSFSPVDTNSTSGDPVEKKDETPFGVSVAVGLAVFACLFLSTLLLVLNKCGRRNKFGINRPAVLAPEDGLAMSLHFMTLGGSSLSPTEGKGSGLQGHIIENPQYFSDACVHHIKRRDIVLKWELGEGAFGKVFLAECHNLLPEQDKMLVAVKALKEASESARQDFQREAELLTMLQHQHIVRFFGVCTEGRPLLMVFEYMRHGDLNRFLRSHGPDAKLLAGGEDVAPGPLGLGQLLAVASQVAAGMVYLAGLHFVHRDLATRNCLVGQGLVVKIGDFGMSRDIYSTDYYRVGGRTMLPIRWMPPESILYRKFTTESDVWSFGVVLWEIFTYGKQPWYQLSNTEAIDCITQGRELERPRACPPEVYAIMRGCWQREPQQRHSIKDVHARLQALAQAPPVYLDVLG", "assay": "NTRK1 inhibition (IC50)", "conditions": "read-out: NTRK1 IC50"}, "endometriotic lesions": {"system": "endometriotic lesions", "assay": "Endometriosis mouse model, lesion efficacy", "assay_type": "in vivo", "conditions": "10 mg/kg, excised lesions", "description": "FIGS. 17A-17F depict the robust efficacy of the inhibitory compounds of the present disclosure as NTRK2 inhibitors for inhibition of endometriotic lesion growth in mice utilizing CDD-3132 as an example. FIG. 17A provides a schematic overview of the experiment performed. FIGS. 17B-17C provide photographs showing excised lesions with administration of a control (FIG. 17B) or CDD-3132 (10 mg/kg/day) (FIG. 17C).\nas §2"}, "[6]": {"conditions": "i.p. dose of 10 mg/kg/day for 14 days"}}, "note": "“Also recorded” adds a separate entry of the source. Like-named read-outs stand apart in the source and are kept apart here.", "data": [{"smiles": "CN(Cc1ccn2ncc(C(N)=O)c2c1)C(=O)Nc1ccc(OC(F)(F)F)cc1", "note": "[CDD-3031, 5-((1-methyl-3-(4-(trifluoromethoxy)phenyl)ureido)methyl)pyrazolo[1,5-a]pyridine-3-carboxamide]", "values": [{"measurement": "selectivity in 192-kinase occupancy panel", "setting": "192 kinases", "value": "greater selectivity for NTRK2 and NTRK1"}, {"measurement": "IC50", "setting": "NTRK3", "value": 25.3, "unit": "nM"}, {"measurement": "brain uptake relative to controls", "setting": "[1]; brain and plasma 24 hours post-administration", "value": "low brain penetration; also recorded: relatively low brain uptake compared to chlorpromazine (positive control), but a high uptake as compared to hydroxyzine (negative control)"}, {"measurement": "concentration at 24 h", "setting": "[1]; mouse, brain, 24 h, read-out: Brain Concentration at 24 h (ng/mg)", "value": 350, "unit": "ng/g"}, {"measurement": "half-life", "setting": "[2]", "value": 13.1, "unit": "h"}, {"measurement": "microsomal CLint", "setting": "[2]", "value": 1.8, "unit": "µL/min/mg"}, {"measurement": "effect on liver and/or kidney weight and/or serum elevation of ALT and AST", "setting": "[3]; 10 mg/kg, mice with endometriotic lesions", "value": "little to no effect"}, {"measurement": "ALT (Mean ± SD)", "setting": "[3]; [6]", "value": "16.6 ± 2.6"}, {"measurement": "AST (Mean ± SD)", "setting": "[3]; [6]", "value": "46.9 ± 23.4"}, {"measurement": "impact on liver and kidney weights", "setting": "[3]; mice treated for 14 days", "value": "no significant impact"}, {"measurement": "AUC(0-inf)", "setting": "[4]; mouse, blood", "value": "478 ± 87.8", "unit": "µM·h"}, {"measurement": "AUC(0-t)", "setting": "[4]; mouse, blood", "value": "418 ± 62.1", "unit": "µM·h"}, {"measurement": "Cmax", "setting": "[4]; mouse, blood", "value": "37.1 ± 4.88", "unit": "µM"}, {"measurement": "Tmax", "setting": "[4]; mouse, blood", "value": "1.17 ± 0.76", "unit": "h"}, {"measurement": "half-life", "setting": "[4]; mouse, blood", "value": "8.03 ± 1.25", "unit": "h"}, {"measurement": "MRT last", "setting": "[4]; mouse, blood, read-out: MRT0-t", "value": "7.23 ± 0.38", "unit": "h"}, {"measurement": "MRT inf", "setting": "[4]; mouse, blood, read-out: MRT0-∞", "value": "10.7 ± 1.52", "unit": "h"}, {"measurement": "CL/F", "setting": "[4]", "value": "0.11 ± 0.02 mg/(hr*μmol/L)/kg"}, {"measurement": "Vd/F", "setting": "[4]", "value": "1.22 ± 0.05 mg/(μmol/L)/kg"}, {"measurement": "half-life", "setting": "[5]", "value": "> 16.7", "unit": "h"}, {"measurement": "IC50", "setting": "NTRK2", "value": 11.9, "unit": "nM"}, {"measurement": "receptor occupancy at 1 µM", "setting": "STK36; average, read-out: STK36 kinase occupancy, Average (%)", "value": 4.82, "unit": "%"}, {"measurement": "receptor occupancy at 1 µM", "setting": "STK36; replicate 1, read-out: STK36 kinase occupancy, Replicate 1 (%)", "value": -3.75, "unit": "%"}, {"measurement": "receptor occupancy at 1 µM", "setting": "STK36; replicate 2, read-out: STK36 kinase occupancy, Replicate 2 (%)", "value": 13.4, "unit": "%"}, {"measurement": "receptor occupancy at 1 µM", "setting": "PKMYT1; average, read-out: PKMYT1 kinase occupancy, Average (%)", "value": 4.17, "unit": "%"}, {"measurement": "receptor occupancy at 1 µM", "setting": "PKMYT1; replicate 1, read-out: PKMYT1 kinase occupancy, Replicate 1 (%)", "value": 5.47, "unit": "%"}, {"measurement": "receptor occupancy at 1 µM", "setting": "PKMYT1; replicate 2, read-out: PKMYT1 kinase occupancy, Replicate 2 (%)", "value": 2.88, "unit": "%"}, {"measurement": "IC50", "setting": "NTRK1", "value": 153, "unit": "nM"}, {"measurement": "endometriotic lesion growth", "setting": "endometriotic lesions", "value": "inhibiting endometriotic lesion growth"}]}]}
